From patent US20040110802A1, “Antibacterial benzoic acid derivatives” (priority 2002, published 2004)
Values after ≈ are worked out from the molar mass of the structure shown.

tested on: SAUR 9218; assay: MIC Test Method, standard agar dilution; format: cell-based; details: agar dilution, Mueller Hinton agar, incubated overnight at 35° C.; lowest concentration that inhibits visible growth; read-out: SAUR 9218 MIC
How it was run: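 MIC (μg/ml) was read as the lowest drug level without visible growth of SAUR 9218 after overnight incubation at 35 °C. Inocula of about 10^4 to 10^5 cells per spot were applied to Mueller Hinton agar containing 2-fold serial compound dilutions.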

| SMILES | MIC [µg/mL] |
| --- | --- |
| Cc1sc(C(=O)Nc2ccc(Br)cc2C(=O)O)cc1S(=O)(=O)N1CCN(c2ccc(Cl)cc2)CC1 | > 128 |
| Cc1sc(C(=O)Nc2ccc(Br)cc2C(=O)O)cc1S(=O)(=O)NC1Cc2ccccc2C1 | 8 (≈ 14.9 µM) |
| Cc1nn(C)c(Cl)c1S(=O)(=O)Nc1cccc2cc(C(=O)Nc3ccc(C#N)cc3C(=O)O)n(C)c12 | 0.125 (≈ 0.237 µM) |
| CCCCS(=O)(=O)Nc1cccc2cc(C(=O)Nc3ccc(C#N)cc3C(=O)O)n(C)c12 | 0.25 (≈ 0.55 µM) |
| Cn1c(C(=O)Nc2ccc(C#N)cc2C(=O)O)cc2cccc(NS(=O)(=O)CCCCl)c21 | 0.125 (≈ 0.263 µM) |
| Cn1c(C(=O)Nc2ccc(C#N)cc2C(=O)O)cc2cccc(C(OOSc3cnc(Cl)c(Br)c3)S(=O)(=O)c3cnc(Cl)c(Br)c3)c21 (stereo not shown) | 0.03 (≈ 0.0356 µM) |
| CON=C1CCn2c(C(=O)Nc3ccc(C#N)cc3C(=O)O)cc3cccc1c32 | 1 (≈ 2.57 µM) |
| CCCS(=O)(=O)Nc1cccc2cc(C(=O)Nc3ccc(C#N)cc3C(=O)O)n(C)c12 | 0.5 (≈ 1.14 µM) |
| Cc1nc(C)c(S(=O)(=O)Nc2cccc3cc(C(=O)Nc4ccc(C#N)cc4C(=O)O)n(C)c23)s1 | 0.5 (≈ 0.981 µM) |
| Cn1c(C(=O)Nc2ccc(C#N)cc2C(=O)O)cc2cccc(NS(=O)(=O)CS(C)(=O)=O)c21 | 2 (≈ 4.08 µM) |
| CCCCNCC(O)COc1cccc2cc(C(=O)Nc3ccc(C#N)cc3C(=O)O)n(C)c12.Cl (stereo not shown) | 0.5 |
| Cn1c(C(=O)Nc2ccc(C#N)cc2C(=O)O)cc2cccc(OCC(O)COCCOc3ccccc3)c21 (stereo not shown) | 0.5 (≈ 0.944 µM) |
| CC(C)=CCOCC(O)COc1cccc2cc(C(=O)Nc3ccc(C#N)cc3C(=O)O)n(C)c12 (stereo not shown) | 0.5 (≈ 1.05 µM) |
| Cn1c(C(=O)Nc2ccc(C#N)cc2C(=O)O)cc2cccc(OCC(O)COCC(O)CO)c21 (stereo not shown) | 2 (≈ 4.14 µM) |
| C#CCCOCC(O)COc1cccc2cc(C(=O)Nc3ccc(C#N)cc3C(=O)O)n(C)c12 (stereo not shown) | 0.5 (≈ 1.08 µM) |
| CCO/N=C1\CCn2c(C(=O)Nc3ccc(C#N)cc3C(=O)O)cc3cccc1c32 | 1 (≈ 2.49 µM) |
| CC(C)(C)O/N=C1\CCn2c(C(=O)Nc3ccc(C#N)cc3C(=O)O)cc3cccc1c32 | 1 (≈ 2.32 µM) |
| Cl.Cn1c(C(=O)Nc2ccc(C#N)cc2C(=O)O)cc2cccc(OCC(O)Cn3ccnc3)c21 (stereo not shown) | 0.5 |
| COCC(C)NCC(O)COc1cccc2cc(C(=O)Nc3ccc(C#N)cc3C(=O)O)n(C)c12.Cl (stereo not shown) | 1 |
| Cl.Cn1c(C(=O)Nc2ccc(C#N)cc2C(=O)O)cc2cccc(OCC(O)CNCC(O)c3ccccc3)c21 (stereo not shown) | 1 |
| Cl.Cn1c(C(=O)Nc2ccc(C#N)cc2C(=O)O)cc2cccc(OCC(O)CNCc3cccs3)c21 (stereo not shown) | 0.5 |
| Cl.Cn1c(C(=O)Nc2ccc(C#N)cc2C(=O)O)cc2cccc(OCC(O)CN3CCOCC3)c21 (stereo not shown) | 1 |

Other lines, results leading:

| MIC [µg/mL] | SMILES |
| --- | --- |
| > 128 | O=C(O)c1cc(Br)ccc1NC(=O)c1ncccc1C(=O)c1ccccc1 |
| 0.25 (≈ 0.507 µM) | Cc1noc(C)c1S(=O)(=O)Nc1cccc2cc(C(=O)Nc3ccc(C#N)cc3C(=O)O)n(C)c12 |
| 0.5 (≈ 1.21 µM) | Cn1c(C(=O)Nc2ccc(C#N)cc2C(=O)O)cc2cccc(NS(C)(=O)=O)c21 |
| 0.5 (≈ 1.08 µM) | N#Cc1ccc(NC(=O)c2cc3cccc4c3n2CC/C4=N\OCc2ccccc2)c(C(=O)O)c1 |
| 2 (≈ 4.44 µM) | N#Cc1ccc(NC(=O)c2cc3cccc4c3n2CC/C4=N\Oc2ccccc2)c(C(=O)O)c1 |
| 0.25 (≈ 0.637 µM) | CCN(C(C)=O)c1ccc2onc(C(=O)Nc3ccc(C#N)cc3C(=O)O)c2c1 |
| 0.125 (≈ 0.283 µM) | CC(C)N(c1ccc2onc(C(=O)Nc3ccc(C#N)cc3C(=O)O)c2c1)S(C)(=O)=O |
| 0.5 (≈ 1.16 µM) | CN(C)S(=O)(=O)Nc1ccc2onc(C(=O)Nc3ccc(C#N)cc3C(=O)O)c2c1 |
| 0.5 (≈ 1.29 µM) | N#Cc1ccc(NC(=O)c2noc3cc(Br)ccc23)c(C(=O)O)c1 |
| 0.5 (≈ 1.14 µM) | CC(=O)Nc1ccccc1-c1ccc2c(C(=O)Nc3ccc(C#N)cc3C(=O)O)noc2c1 |
| 0.015 (≈ 0.0341 µM) | CC(=O)Nc1cccc(-c2ccc3c(C(=O)Nc4ccc(C#N)cc4C(=O)O)noc3c2)c1 |
| 0.25 (≈ 0.668 µM) | N#Cc1ccc(NC(=O)c2cc3cccc4c3n2CC/C4=N\O)c(C(=O)O)c1 |
| 1 (≈ 3.09 µM) | N#Cc1ccc(NC(=O)c2nsc3ccccc23)c(C(=O)O)c1 |
| > 128 | N#Cc1ccc(NC(=O)C2=NS(=O)(=O)c3ccccc32)c(C(=O)O)c1 |
| 0.125 | Cl.Cn1c(C(=O)Nc2ccc(C#N)cc2C(=O)O)cc2cccc(OCC(O)CNc3ccccc3)c21 (stereo not shown) |
